Data on 102 molecules can be found in PubChem BioAssay AID608 (Sanford-Burnham Center for Chemical Genomics, 2007).

What is called Kd is the free concentration of one partner at which half of the binding sites on the other are occupied at equilibrium, for simple one-to-one binding.

Molecules are shown by their SMILES. The source made the active and inactive calls. The rule behind the calls is not given here. A value given as a limit tells only on which side of the number the result lay.

Chain of Peptidyl-prolyl cis-trans isomerase FKBP1A (Homo sapiens) (P62942 whole entry, looked up): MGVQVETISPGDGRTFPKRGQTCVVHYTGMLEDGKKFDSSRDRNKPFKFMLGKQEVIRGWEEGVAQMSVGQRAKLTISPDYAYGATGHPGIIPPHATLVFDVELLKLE

This assay has as its target Peptidyl-prolyl cis-trans isomerase FKBP1A (Homo sapiens) (UniProt P62942). The assay can be described thus: FKBP12 binders, biophysical, NMR detection (AID 608). The settings on record: NMR binding, purified FKBP12.
For the molecule `COc1ccc(CN2CCC(O)CC2)c(O)c1`, the Kd is > 4 mM (inactive). Take `CCOC(=O)N1CCN(c2ncnc3c2cnn3C)CC1`: the Kd was > 4 mM (inactive). Turning to `Nc1cccc(NC(=O)c2ccco2)c1`, the Kd is > 4 mM (inactive). Take `COC(=O)c1ccccc1NC(=O)c1cc[n+]([O-])cc1`: the Kd is > 4 mM (inactive). The same measure for `N[C@@H](Cc1ccc(O)c(O)c1)C(=O)O`: > 4 mM (inactive); for `O=C(O)CCSc1nc2ccccc2s1`: > 4 mM (inactive); for `CCSc1nnc2[nH]c(=O)cc(C)n12`: > 4 mM (inactive). In the case of `CNS(=O)(=O)c1cc(OC)ccc1OC` it was > 4 mM (inactive). `CCc1ccc(OCC(=O)N2CCOCC2)cc1`: the Kd was 0.435 mM. `O=C1C[C@@H](c2ccc(O)cc2)Oc2cc(O)cc(O)c21`: the Kd is > 4 mM (inactive). In the case of `Cc1cccc(N2C(=O)CCC2=O)n1` it was > 4 mM (inactive). The same measure for `Cc1ccc(-c2nc(N)n(C(=O)c3cccnc3)n2)cc1`: > 4 mM (inactive); for `O=S(=O)(Nc1ccc(Br)cc1)N1CCCCC1`: 0.669 mM.

In the case of `O=C1NC(=S)N/C1=C\c1ccccc1`, the Kd was > 4 mM (inactive). In the case of `COc1ccc(-c2nc(C)sc2CC(=O)O)cc1` it was > 4 mM (inactive).

Regarding `COc1ccc(-c2cc(=O)c3ccccc3o2)cc1OC`, the Kd was > 4 mM (inactive).

For `Cc1nc(-c2ccccc2)ncc1C(=O)O`, the Kd was > 4 mM (inactive). `c1ccc(Cc2nnc3sc(-c4ccccn4)nn23)cc1`: the Kd is > 4 mM (inactive). With `O=CN1CCN(C(=O)c2ccc(F)cc2)CC1`, the Kd was > 4 mM (inactive).

Consider `Cc1cc2cc3c(C)cc(=O)oc3c(C)c2o1`, for which the Kd is > 4 mM (inactive). The same measure for `CC(=O)c1ccc(CC2SC(N)=NC2=O)cc1` (configuration not stated): > 4 mM (inactive); for `CC(=O)Nc1ccc(NC(=O)c2ccncc2)cc1`: > 4 mM (inactive). In the case of `CC1CN=C(Nc2ccccc2)S1` (configuration not stated) it was > 4 mM (inactive); in that of `NC(=S)NC1CCS(=O)(=O)C1` (configuration not stated), > 4 mM (inactive); in that of `O=C(c1ccncc1)N1CCN(C(=O)c2ccco2)CC1`, > 4 mM (inactive). On to `Clc1ccccc1-c1nc(-c2cccnc2)no1`, for which the Kd is > 4 mM (inactive). The same measure for `CC(=O)Nc1c(C#N)c(C(C)(C)C)cn1C`: > 4 mM (inactive); for `OCc1ccc(-c2cccs2)s1`: > 4 mM (inactive); for `Clc1cccc(Cl)c1Cn1c(-c2cscn2)nc2ccccc21`: “inactive”. In the case of `COc1ccccc1-c1noc(-c2ccco2)n1` it was > 4 mM (inactive); in that of `COc1ccc(Cl)cc1NC(=O)c1ccco1`, > 4 mM (inactive); in that of `CCn1c(-c2c[nH]c3ccccc23)n[nH]c1=S`, > 4 mM (inactive). For `Cc1cc(=O)n(C(N)=S)[nH]1`, the Kd was > 4 mM (inactive).

As to `O=c1[nH]cc(N2CCCCC2)c(=O)[nH]1`, the Kd is > 4 mM (inactive). Consider `OCc1ccc2c(c1)OCCO2`, for which the Kd was > 4 mM (inactive). For the molecule `C[C@@H]1O[C@@H](O[C@H]2CC[C@]3(C=O)C4CC[C@]5(C)[C@@H](C6=CC(=O)OC6)CC[C@]5(O)C4CC[C@]3(O)C2)[C@H](O)[C@H](O)[C@H]1O` (some centres not stated), the Kd is > 4 mM (inactive). The same measure for `O=C1Nc2ccccc2C1(O)Cc1ccncc1` (configuration not stated): > 4 mM (inactive). In the case of `COc1cc2c(cc1OC)[C@@H]1C(=O)c3ccc4oc(C(C)C)cc4c3O[C@@H]1CO2` it was > 4 mM (inactive); in that of `Oc1ccccc1N=Cc1cccnc1`, > 4 mM (inactive); in that of `Oc1ccccc1-c1cc(C(F)(F)F)[nH]n1`, > 4 mM (inactive). As for `C=C(C)[C@H]1CC=C(C(=O)O)CC1`, the Kd was > 4 mM (inactive). As for `O=C(O)C1CSC(c2cccnc2)N1` (configuration not stated), the Kd is > 4 mM (inactive). With `Cc1cc(C(=O)NCc2cccs2)cs1`, the Kd is > 4 mM (inactive). The same measure for `Cc1cccc(N2CCN(C(=O)c3ccncc3)CC2)c1C`: > 4 mM (inactive); for `NC(=O)CCS(=O)(=O)CCN1CCOCC1`: > 4 mM (inactive).

As to `NCc1cc2ccccc2s1`, the Kd is > 4 mM (inactive).

Consider `COc1ccc(-c2nc3nc(C)cc(C)n3n2)cc1`, for which the Kd is > 4 mM (inactive). In the case of `C[C@]12CC(=O)C3C(CC[C@@H]4C[C@H](O)CC[C@]34C)C1CC[C@]2(O)C(=O)CO` (some centres not stated), the Kd is > 4 mM (inactive). For `CSc1ccc(/C=N/n2c(C)nnc2C)cc1`, the Kd was > 4 mM (inactive). In the case of `O=C(NC(=O)N1CCOCC1)c1ccccc1` it was > 4 mM (inactive); in that of `CC(=O)NC(NC(C)=O)c1ccccc1`, > 4 mM (inactive); in that of `CSc1ccccc1NC(=O)c1ccco1`, > 4 mM (inactive). Turning to `O=C(CS(=O)(=O)c1ccccc1)N1CCCCCC1`, the Kd was > 4 mM (inactive).

Take `OC1CCN(c2nccc(C(F)(F)F)n2)CC1`: the Kd was > 4 mM (inactive).

As to `COc1ccc(-c2coc3cc(OC(C)=O)cc(OC(C)=O)c3c2=O)cc1`, the Kd is > 4 mM (inactive). As for `COc1ccc(O)c(-c2cn[nH]c2-c2cccs2)c1`, the Kd is > 4 mM (inactive). The same measure for `CC(=O)Nc1cccc(Cn2cccn2)c1`: > 4 mM (inactive); for `Cc1ccc(C(=O)Nc2c[nH]c(=O)[nH]c2=O)cc1`: > 4 mM (inactive). The same measure for `CC1(O)CC2C=CC1C2` (configuration not stated): > 4 mM (inactive). The same measure for `CC(C)c1ccc2c(c1)CCC1[C@](C)(CN)CCC[C@]21C` (some centres not stated): > 4 mM (inactive). With `CN(C)S(=O)(=O)c1ccc(C(=O)NN)cc1`, the Kd is > 4 mM (inactive).

Consider `CC(=O)Nc1ccc(NC(=O)c2ccnn2C)cc1`, for which the Kd is > 4 mM (inactive). Take `c1cnc(N2CCNCC2)nc1`: the Kd is > 4 mM (inactive).

As for `CSc1nc(NC(C)C)nc(N2CCOCC2)n1`, the Kd was > 4 mM (inactive). As to `Cc1cc(=O)[nH]c(NCC(=O)O)n1`, the Kd was > 4 mM (inactive).

Regarding `CC(=O)Nc1cc(C(N)=O)cc(C(N)=O)c1`, the Kd is > 4 mM (inactive).

Take `O=C(O)c1ccccc1SCC(=O)N1CCOCC1`: the Kd was > 4 mM (inactive). For `Cc1ncoc1C(=O)Nc1ncc([N+](=O)[O-])s1`, the Kd was > 4 mM (inactive). The same measure for `Cc1cc(N)ccc1NC(=O)c1ccco1`: > 4 mM (inactive); for `Cc1nn(C)c(Cl)c1S(=O)(=O)N1CCOCC1`: > 4 mM (inactive). The same measure for `COc1ccc2c(c1)OCC(Cc1ccc(OC)c(O)c1)C2=O` (configuration not stated): > 4 mM (inactive); for `Cc1cc(C(=O)N2CCC3(CC2)OCCO3)cs1`: > 4 mM (inactive).

With `COc1cccc(O)c1O`, the Kd was > 4 mM (inactive). On to `COc1c2ccoc2c(OC)c2oc(=O)ccc12`, for which the Kd was > 4 mM (inactive). `CC(=O)O[C@H]1CC[C@@]2(C)C(CC[C@]3(C)C2C(=O)C=C2C4[C@@H](C)[C@H](C)CC[C@]4(C(=O)O)CC[C@]23C)C1(C)C` (some centres not stated): the Kd is > 4 mM (inactive). In the case of `C=C(C)C1(O)OC(=O)C=C1OC` (configuration not stated) it was > 4 mM (inactive); in that of `CC(=O)NC(=S)Nc1ccc(N(C)C(C)=O)cc1`, > 4 mM (inactive).

Regarding `CC(C)(C)c1cc(N)n[nH]1`, the Kd is > 4 mM (inactive).

`CCOC(=O)c1c[nH]c2c(F)cccc2c1=O`: the Kd was > 4 mM (inactive). The same measure for `O=C(OC[C@H]1O[C@H](OC(=O)c2cc(O)c(O)c(OC(=O)c3cc(O)c(O)c(O)c3)c2)[C@H](OC(=O)c2cc(O)c(O)c(OC(=O)c3cc(O)c(O)c(O)c3)c2)[C@@H](OC(=O)c2cc(O)c(O)c(OC(=O)c3cc(O)c(O)c(O)c3)c2)[C@@H]1OC(=O)c1cc(O)c(O)c(OC(=O)c2cc(O)c(O)c(O)c2)c1)c1cc(O)c(O)c(OC(=O)c2cc(O)c(O)c(O)c2)c1`: > 4 mM (inactive); for `O=C1CN(C(=O)c2ccccc2F)c2ccccc2N1`: > 4 mM (inactive). Take `COCCn1c(N)nc2c1c(=O)[nH]c(=O)n2C`: the Kd is > 4 mM (inactive). As to `CC(C)c1ccc(S(=O)(=O)CC(=O)N2CCOCC2C(=O)OCCCc2cccnc2)cc1` (configuration not stated), the Kd entry is “inactive”. With `COc1ccc(C2(CN)CCOCC2)cc1OC`, the Kd was > 4 mM (inactive).

Consider `O=C1NC(=Nc2ccccc2)S/C1=C/c1cccnc1`, for which the Kd was > 4 mM (inactive). On to `Cc1cc(C)cc(NS(=O)(=O)N2CCOCC2)c1`, for which the Kd entry is “inactive”. In the case of `CC1(C)N=C2C(=N)C=CC=C2N1O` it was > 4 mM (inactive); in that of `CC[C@@]1(O)C(=O)OCc2c1cc1n(c2=O)Cc2cc3ccccc3nc2-1`, > 4 mM (inactive); in that of `O=C(O)C1CSC2(CCCCC2)N1` (configuration not stated), > 4 mM (inactive). The same measure for `O=C1Nc2ccccc2C12OCCO2`: > 4 mM (inactive); for `Cc1ccccc1NC(=O)CSc1ccnc(=O)[nH]1`: > 4 mM (inactive).

`CS(=O)(=O)NN=C1CCCCC1`: the Kd is > 4 mM (inactive).

With `Nc1cc(N)nc(SCc2ccccc2)n1`, the Kd is > 4 mM (inactive). For `COc1ccc(C2=CC(=O)C=CC2=O)cc1`, the Kd is > 4 mM (inactive). As for `Cc1cc(C(=O)NC(C)c2ccncc2)cs1` (configuration not stated), the Kd is > 4 mM (inactive). Regarding `Cc1ccc2cccc(OC(=O)N3CCCC3)c2n1`, the Kd was > 4 mM (inactive). As to `c1ccc(-c2csc3ncn4nnnc4c23)cc1`, the Kd was > 4 mM (inactive). Take `Cc1cc(SCCF)n2ncnc2n1`: the Kd is > 4 mM (inactive). On to `Cc1cc(OC(=O)c2ccco2)c([N+](=O)[O-])c(=O)[nH]1`, for which the Kd was > 4 mM (inactive). As for `NC(=O)COc1cccc2cccnc12`, the Kd was > 4 mM (inactive). As to `CN(C)C(=O)Nc1ccc2c(c1)nnn2C`, the Kd is > 4 mM (inactive). As to `Cc1ccc(C(=O)N2CCC(C(N)=O)CC2)c(Cl)c1`, the Kd is > 4 mM (inactive).
